Legend:
PSCs = experiment: PSC viability (Live/Dead Cell Imaging Kit); assay type: cell-based; settings: Yoda1 25 μM for 2 hr
Description: Mouse and human PSCs were isolated using collagenase digestion. Modified Krebs Henseleit Buffer (KHB) solution (100 mL) was prepared as previously described by Romac et al., Nat. Commun. 9(1):1715 (2018). Pancreatic tissue was digested with 2 mg of collagenase NB 8 (SERVA, catalog 17456) dissolved in 10 mL of modified KHB solution containing 1 mg soybean trypsin inhibitor (SBTI 1-S; Millipore Sigma, catalog T9003) and 20 mg BSA (Thermo Fisher Scientific; BP1600-100). Digestion solution (5 mL) was used to inflate the pancreas. Pancreas with 5 mL of digestion solution was incubated in a shaking water bath for 10 minutes at 37° C. The solution was then discarded. The pancreas tissue was cut into small pieces and digested with fresh 5 mL digestion buffer. Tissue was incubated in a shaking water bath for 40 minutes at 37° C. The cells were then separated from tissue by pipetting up-down with a 10 mL pipette and passed sequentially through a 70 μm and a 40 μm cell strainer. The filtrate was centrifuged at 150×g for 3 minutes at room temperature. The cells were washed with 10 mL Leibovitz's media (Thermo Fisher Scientific, catalog 11415-064), passed through a 20 μm filter, and centrifuged at 80×g for 3 minutes at room temperature. […] The cell viability following Yoda1 treatment was analyzed using the Live/Dead cell imaging kit (Thermo Fisher Scientific, catalog R37601). […]

pancreas = experiment: Yoda1 pancreatic duct infusion pancreatitis model; assay type: in vivo, mouse; settings: Yoda1 0.4 mg/kg infused into the pancreatic duct
Description: Laparotomy surgery was performed both in pancreatic partial duct ligation- and retrograde pancreatic duct infusion-mediated pancreatitis experiments as previously described by Romac et al., Nat. Commun. 9(1):1715 (2018). Yoda1 at a dose of 0.4 mg/kg in 50 μL 1.1% dimethylsulfoxide, 4.8% ethanol, and 94.1% buffered saline was injected. In Yoda1-mediated pancreatitis, the midportion of the pancreas (about 100-125 mg) was carefully excised and used for biochemical assays and histological staining. Histological scoring was evaluated from the entire section. Partial PDL was performed as previously described. Using a stereo microscope, the tail region of the pancreas was visualized, and the main pancreatic duct was ligated carefully with 6-0 Prolene suture without damaging the left portal vein that separates the splenic lobe and gastroduodenal part of the pancreas. […]
Serum amylase concentration was measured by a colorimetric method after reaction with substrate using the Phadebas Amylase Test Tablet (Magle Life Sciences) and the Tecan-infinite M200 Pro plate reader.
MPO was measured using previously described methods with modifications. […] To calculate the mU of MPO/mg of protein, the protein concentrations of the supernatants were measured using the Micro BCA Protein Assay Kit (Thermo Fisher Scientific; 23235). […]

Compound: Clc1cccc(Cl)c1CSc1nnc(-c2cnccn2)s1 [Yoda1]
- PSC viability and membrane integrity (PSCs): did not affect PSC viability and membrane integrity
- pancreatitis in TRPV4-KO mice (pancreas): did not cause pancreatitis in TRPV4-KO mice
- pancreatitis parameters (pancreatic edema, serum amylase, pancreatic MPO, histological scoring) (pancreas; WT mice): increased all pancreatitis parameters measured

From patent US20250352615A1, “COMPOSITIONS AND METHODS FOR THE MODULATION OF PIEZO1 AND TRPV4” (Duke University, priority 2021, published 2025)
